Results: PubChem BioAssay AID1117355 (Cheminformatics & Chemogenomics Research Group (CCRG), …, 2015)
Active and inactive are the calls of the source. The rule behind the calls is not given here.

Target: Glycogen synthase kinase-3 beta (Homo sapiens) (UniProt P49841)
Assay: NPC library primary assay, GSK-3β enzyme inhibitors, biochemical, Homo sapiens, LANCE Ultra TR-FRET detection (AID 1117355)
Conditions: LANCE Ultra TR-FRET kinase activity; at 20 µM (top of the series)

Glycogen synthase kinase-3 beta (Homo sapiens), sequence (P49841 whole entry, looked up): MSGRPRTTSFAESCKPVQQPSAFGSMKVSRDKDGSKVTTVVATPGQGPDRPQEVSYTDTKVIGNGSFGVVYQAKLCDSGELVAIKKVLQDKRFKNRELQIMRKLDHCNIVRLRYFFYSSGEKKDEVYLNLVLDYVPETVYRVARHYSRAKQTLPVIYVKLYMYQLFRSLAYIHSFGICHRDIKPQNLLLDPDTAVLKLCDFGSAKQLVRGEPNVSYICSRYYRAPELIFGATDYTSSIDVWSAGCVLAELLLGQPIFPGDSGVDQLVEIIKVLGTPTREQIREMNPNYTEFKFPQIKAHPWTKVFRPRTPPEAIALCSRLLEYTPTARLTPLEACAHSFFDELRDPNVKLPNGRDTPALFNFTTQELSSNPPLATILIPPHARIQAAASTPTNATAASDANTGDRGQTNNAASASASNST

Row | Compound | inhibition
1 | COc1ccc(-c2nc3ccc(C4=NNC(=O)CC4C)cc3[nH]2)cc1 (stereo unspecified) | -64.9% (inactive)
2 | CCN(CC)CCNC(=O)c1c(C)[nH]c(/C=C2\C(=O)Nc3ccc(F)cc32)c1C | 62.9%
3 | COc1ccc(-c2ccc3cc(C(=O)O)ccc3c2)cc1C12CC3CC(CC(C3)C1)C2 | 79.4%
4 | O=C1c2c(O)ccc(O)c2C(=O)c2c(NCCNCCO)ccc(NCCNCCO)c21 | -5.18% (inactive)
5 | Oc1c(I)cc(I)c2cccnc12 | -1.57% (inactive)
6 | COC(=O)Nc1nc2ccc(C(=O)c3ccccc3)cc2[nH]1 | 25.4% (inactive)
7 | CC(=O)Oc1ccc(C2(c3ccc(OC(C)=O)cc3)Oc3ccccc3NC2=O)cc1 | 19% (inactive)
8 | CC[C@]1(O)C[C@H]2CN(CCc3c([nH]c4ccccc34)[C@@](C(=O)OC)(c3cc4c(cc3OC)N(C=O)[C@H]3[C@@](O)(C(=O)OC)[C@H](OC(C)=O)[C@]5(CC)C=CCN6CC[C@]43[C@@H]65)C2)C1 | -0.84% (inactive)
9 | CCCCc1oc2ccccc2c1C(=O)c1cc(I)c(OCCN(CC)CC)c(I)c1 | 26% (inactive)
10 | CCC1=C[C@@H]2CN(C1)Cc1c([nH]c3ccccc13)[C@@](C(=O)OC)(c1cc3c(cc1OC)N(C)[C@H]1[C@@](O)(C(=O)OC)[C@H](OC(C)=O)[C@]4(CC)C=CCN5CC[C@]31[C@@H]54)C2 | 24.2% (inactive)
11 | Cc1cc2c(C(C)C)c(O)c(O)c(C=O)c2c(O)c1-c1c(C)cc2c(C(C)C)c(O)c(O)c(C=O)c2c1O | 7.52% (inactive)
12 | [O-][n+]1ccccc1SSc1cccc[n+]1[O-] | -25.6% (inactive)
13 | CCN(CC)CCNc1ccc(CO)c2sc3ccccc3c(=O)c12 | 24.6% (inactive)
14 | Cc1cc(=O)c2c(O)c3c(O)cc(=O)c4c3c3c(cc(O)c1c23)C(C)(C)C=4O | 60.6%
15 | COc1cc(NCc2ccc3nc(N)nc(N)c3c2C)cc(OC)c1OC | 2.46% (inactive)
16 | COC(=O)Nc1nc2ccc(S(=O)c3ccccc3)cc2[nH]1 (stereo unspecified) | -3.53% (inactive)
17 | O=C(NOCC1CC1)c1ccc(F)c(F)c1Nc1ccc(I)cc1Cl | -12.6% (inactive)
18 | O=C(CCl)c1ccc(Cl)cc1Cl | 9.91% (inactive)
19 | S=c1nc[nH]c2nc[nH]c12 | 20.7% (inactive)
20 | CCCCC1C(=O)N(c2ccccc2)N(c2ccc(O)cc2)C1=O (stereo unspecified) | 5.48% (inactive)
21 | COc1cc(-c2ccc(=O)[nH]n2)ccc1OC(F)F | -21.7% (inactive)

Row | Compound | inhibition
22 | CCc1nc(N)nc(N)c1-c1ccc(Cl)cc1 | -8.63% (inactive)
23 | C=CC(=O)Nc1cc2c(Nc3ccc(F)c(Cl)c3)ncnc2cc1OCCCN1CCOCC1 | 31.2% (inactive)
24 | COc1cc2nc(N3CCN(C(=O)c4ccco4)CC3)nc(N)c2cc1OC | -50.4% (inactive)
25 | O=c1[nH]c(=O)n([C@H]2C[C@H](O)[C@@H](CO)O2)cc1F | -21.3% (inactive)
26 | C=C(C)[C@H]1Cc2c(ccc3c2O[C@@H]2COc4cc(OC)c(OC)cc4[C@@H]2C3=O)O1 | 21.6% (inactive)
27 | CCCCCCCCCCCCCCCCCCNC(=O)OC1CCN(C(=O)OC[C@H](COC(=O)N(Cc2cccc[n+]2CC)C(=O)c2ccccc2OC)OC)CC1 | 24% (inactive)
28 | CSc1ccc2c(c1)C(N1CCN(C)CC1)Cc1ccccc1S2 (stereo unspecified) | 0.73% (inactive)
29 | CC[C@@]1(O)C(=O)OCc2c1cc1n(c2=O)Cc2c-1nc1ccccc1c2/C=N/OC(C)(C)C | 16.9% (inactive)
30 | COC(=O)[C@H]1[C@H]2C[C@@H]3c4[nH]c5cc(OC)ccc5c4CCN3C[C@H]2C[C@@H](OC(=O)/C=C/c2ccc(O)c(OC)c2)[C@@H]1OC | 7.56% (inactive)
31 | COc1cc2c(c(OC)c1OC)-c1ccc(OC)c(=O)cc1[C@@H](NC(C)=O)CC2 | 4.13% (inactive)
32 | CCCCCCCCCCCCCC[N+](C)(C)C | -4.51% (inactive)
33 | O=c1c(-c2ccccc2)c1-c1ccccc1 | 31.4% (inactive)
34 | CC(C)C[C@H](NC(=O)[C@H](Cc1ccccc1)NC(=O)c1cnccn1)B(O)O | 1.64% (inactive)
35 | COC(=O)Nc1nc2ccc(Sc3ccccc3)cc2[nH]1 | -21% (inactive)
36 | O=[N+]([O-])c1ccc(O)c2ncccc12 | -9.81% (inactive)
37 | COCc1c(C(C)C)nc(C(C)C)c(/C=C/[C@@H](O)C[C@@H](O)CC(=O)O)c1-c1ccc(F)cc1 | 3.27% (inactive)
38 | CCC(C)n1ncn(-c2ccc(N3CCN(c4ccc(OC[C@H]5CO[C@](Cn6cncn6)(c6ccc(Cl)cc6Cl)O5)cc4)CC3)cc2)c1=O (stereo partly specified) | 14.1% (inactive)
39 | CC[C@@H]([C@H](C)O)n1ncn(-c2ccc(N3CCN(c4ccc(OC[C@@H]5CO[C@@](Cn6cncn6)(c6ccc(F)cc6F)C5)cc4)CC3)cc2)c1=O | 8.55% (inactive)
40 | COC(=O)Nc1nc2ccc(C(=O)C3CC3)cc2[nH]1 | 54.4%
41 | Cc1cc(O)c2ccccc2c1O | 50.4%
